Consider 13 compounds from US10981926B2 (Janssen Pharmaceutica NV, priority 2016, dated 2021).

The structures appear in SMILES notation.

Common to all, as to format: cell-based
For test [1], the target named is T1, wild-type Androgen Receptor (AR-wt) (Homo sapiens (Human), UniProt P10275). Put plainly: LNCaP-AR-wt ANT reporter assay (antagonist mode). Conditions: for Emax: read-out: LNCaP-AR-wt ANT MAX % Inh; for IC50: read-out: LNCaP-AR-wt ANT pIC50 (converted).
Test [2] deals with T2, F876L mutant Androgen Receptor (AR-F876L) (Homo sapiens (Human), UniProt P10275, F877L). Put plainly: LNCaP-AR-F876L AG reporter assay (agonist mode). The conditions noted are these: for Emax: read-out: LNCaP-AR-F876L AG MAX % Stim; for EC50: read-out: LNCaP-AR-F876L AG pEC50 (converted). (A reporter such as luciferase makes a cellular process visible.)
For test [3], the target named is T2, F876L mutant Androgen Receptor (AR-F876L). Put plainly: LNCaP-AR-F876L ANT reporter assay (antagonist mode). The conditions noted are these: for Emax: read-out: LNCaP-AR-F876L ANT MAX % Inh; for IC50: read-out: LNCaP-AR-F876L ANT pIC50 (converted).
Test [4] concerns the target T1, wild-type Androgen Receptor (AR-wt). Put plainly: LNCaP-AR-wt AG reporter assay (agonist mode). The conditions noted are these: for Emax: read-out: LNCaP-AR-wt AG MAX % Stim; for EC50: read-out: LNCaP-AR-wt AG pEC50 (converted).
[5] abbreviates: antagonist mode, maximum % inhibition of R1881 control response over tested concentration range.
[6] abbreviates: antagonist mode, pIC50 = −Log10(IC50 in Molar).
[7] abbreviates: agonist mode, maximum % stimulation over tested concentration range.
The mark [8] stands for this setting: agonist mode, pEC50 = −Log10(EC50 in Molar).
[9] abbreviates: maximum % inhibition of R1881 control response over the tested concentration range.
The mark [10] stands for this setting: maximum % stimulation (agonist response) over the tested concentration range.

T2 sequence (P10275 whole entry F877L): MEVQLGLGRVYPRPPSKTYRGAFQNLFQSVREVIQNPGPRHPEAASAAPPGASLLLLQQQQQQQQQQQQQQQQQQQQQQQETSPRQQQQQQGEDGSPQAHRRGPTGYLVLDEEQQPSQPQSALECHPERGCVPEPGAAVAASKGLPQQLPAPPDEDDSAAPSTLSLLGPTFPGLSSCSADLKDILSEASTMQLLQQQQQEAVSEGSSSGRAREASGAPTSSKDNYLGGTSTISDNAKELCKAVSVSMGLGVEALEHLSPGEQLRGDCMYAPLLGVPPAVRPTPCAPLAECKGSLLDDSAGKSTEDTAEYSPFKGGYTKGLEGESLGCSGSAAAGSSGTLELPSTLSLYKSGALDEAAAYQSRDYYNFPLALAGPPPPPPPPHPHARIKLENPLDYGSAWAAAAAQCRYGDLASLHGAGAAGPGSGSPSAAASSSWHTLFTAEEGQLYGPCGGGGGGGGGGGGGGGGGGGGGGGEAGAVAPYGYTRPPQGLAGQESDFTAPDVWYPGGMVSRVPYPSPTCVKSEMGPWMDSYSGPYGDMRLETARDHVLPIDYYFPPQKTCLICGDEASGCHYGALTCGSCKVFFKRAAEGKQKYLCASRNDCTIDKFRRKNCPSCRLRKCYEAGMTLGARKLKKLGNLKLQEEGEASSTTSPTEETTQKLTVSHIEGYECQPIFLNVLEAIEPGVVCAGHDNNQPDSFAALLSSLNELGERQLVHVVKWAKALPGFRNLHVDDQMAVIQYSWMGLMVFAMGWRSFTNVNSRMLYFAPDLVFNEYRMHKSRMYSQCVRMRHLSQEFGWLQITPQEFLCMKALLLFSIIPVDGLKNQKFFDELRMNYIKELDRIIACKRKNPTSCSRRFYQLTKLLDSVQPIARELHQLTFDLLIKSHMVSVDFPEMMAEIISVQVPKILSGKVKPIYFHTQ
T1 sequence (P10275 whole entry): as the sequence (P10275 whole entry F877L) above, with L877F counted along it

Turning to `COc1cc(N2C(=O)C3(CCC3)N(c3ccc4c(cnn4C4CCN(C(C)=O)CC4)c3)C2=S)cnc1C#N` [Cpd 212, 5-[8-[1-(1-acetyl-4-piperidyl)indazol-5-yl]-5-oxo-7-thioxo-6,8-diazaspiro[3.4]octan-6-yl]-3-methoxy-pyridine-2-carbonitrile], the Emax in test [1] (setting [5]) is 102%; in test [2] (setting [7]) it was 1.5%; in test [3] (setting [5]) it was 96.1%; in test [4] (setting [7]) it was 0.2%. Also, the IC50 in test [1] (setting [6]) is 135 nM; in test [3] (setting [6]), 331 nM. The EC50 in test [2] (setting [8]) and in test [4] (setting [8]) was above 15.1 µM each time.
Consider `CN1CCC[C@@H](CNC(=O)c2ccc(N3C(=S)N(c4cnc(C#N)c(C(F)(F)F)c4)C(=O)C34CCC4)cc2)C1` [Cpd 185, 4-[6-[6-cyano-5-(trifluoromethyl)-3-pyridyl]-5-oxo-7-thioxo-6,8-diazaspiro[3.4]octan-8-yl]-N-[[(3S)-1-methyl-3-piperidyl]methyl]benzamide], for which the Emax stood at 102% in test [1] (setting [5]), 0.8% in test [2] (setting [7]), 102% in test [3] (setting [5]) and 0.2% in test [4] (setting [7]). For the same compound, the IC50 in test [1] (setting [6]) was 708 nM; in test [3] (setting [6]) it was 427 nM. In addition, the EC50 in test [2] (setting [8]) and in test [4] (setting [8]) was above 15.1 µM each time.
As for `N#Cc1ncc(N2C(=O)C3(CCC3)N(c3cnc(OC4CCN(CCO)CC4)nc3)C2=S)cc1C(F)(F)F` [Cpd 252, 5-[8-[2-[[1-(2-hydroxyethyl)-4-piperidyl]oxy]pyrimidin-5-yl]-5-oxo-7-thioxo-6,8-diazaspiro[3.4]octan-6-yl]-3-(trifluoromethyl)pyridine-2-carbonitrile], the Emax in test [1] (setting [5]) was 0%; in test [2] (setting [7]), -0.1%; in test [3] (setting [5]) it was 100%; in test [4] (setting [7]), -0.1%. In addition, the IC50 in test [1] (setting [6]) is 407 nM; in test [3] (setting [6]) it was 832 nM. Further, the EC50 in test [2] (setting [8]) and in test [4] (setting [8]) was above 15.1 µM throughout.
`CC(C)(C)OC(=O)NC1C(C)(C)C(Oc2ccc(N3C(=S)N(c4cnc(C#N)c(C(F)(F)F)c4)C(=O)C34CCC4)cc2)C1(C)C` (centres unmarked) [Cpd 110, tert-butyl N-[3-[4-[6-[6-cyano-5-(trifluoromethyl)-3-pyridyl]-5-oxo-7-thioxo-6,8-diazaspiro[3.4]octan-8-yl]phenoxy]-2,2,4,4-tetramethyl-cyclobutyl]carbamate]: the IC50 in test [1] (setting [6]) is 132 nM; in test [3] (setting [6]), 91.2 nM. Further, the Emax in test [1] (setting [9]) was found to be 101%; in test [2] (setting [10]) it was 0.2%; in test [3] (setting [9]) it was 100%; in test [4] (setting [10]), 0.3%. In addition, the EC50 in test [2] (setting [8]) and in test [4] (setting [8]) was above 15.1 µM each time.
Take `N#Cc1ncc(N2C(=O)C3(CCC3)N(c3ccc(OC4CCN(CC(O)CN)CC4)cc3)C2=S)cc1C(F)(F)F` (centres unmarked) [Cpd 157, 5-[8-[4-[[1-(3-amino-2-hydroxy-propyl)-4-piperidyl]oxy]phenyl]-5-oxo-7-thioxo-6,8-diazaspiro[3.4]octan-6-yl]-3-(trifluoromethyl)pyridine-2-carbonitrile]: the figures for the IC50 in test [1] (setting [6]) and in test [3] (setting [6]) were 724 nM and 501 nM, respectively. For the same compound, the Emax in test [1] (setting [9]) is 102%; in test [2] (setting [10]), 0%; in test [3] (setting [9]), 99.8%; in test [4] (setting [10]) it was -0.2%. Moreover, the EC50 in test [2] (setting [8]) and in test [4] (setting [8]) was above 15.1 µM each time.
As for `Cc1cc(N2C(=O)C3(CCC3)N(c3ccc(CC4CCNCC4)cc3)C2=S)cnc1C#N` [Cpd 235, 3-methyl-5-[5-oxo-8-[4-(4-piperidylmethyl)phenyl]-7-thioxo-6,8-diazaspiro[3 4]octan-6-yl]pyridine-2-carbonitrile], the Emax in test [1] (setting [5]) was 101%; in test [2] (setting [7]), 0.1%; in test [3] (setting [5]) it was 101%; in test [4] (setting [7]) it was 0.2%. Further, the results for the IC50 in test [1] (setting [6]) and in test [3] (setting [6]) were 1070 nM and 562 nM, respectively. Moreover, the EC50 in test [2] (setting [8]) and in test [4] (setting [8]) was above 15.1 µM throughout.
As for `Cc1nc2cc(N3C(=S)N(c4cnc(C#N)c(C(F)(F)F)c4)C(=O)C34CCC4)ccc2[nH]1` [Cpd 245, 5-[8-(2-methyl-1H-benzimidazol-5-yl)-5-oxo-7-thioxo-6,8-diazaspiro[3.4]octan-6-yl]-3-(trifluoromethyl)pyridine-2-carbonitrile], the Emax in test [1] (setting [5]) came out at 99.3%; in test [2] (setting [7]), 0.5%; in test [3] (setting [5]), 102%; in test [4] (setting [7]), 0%. Further, the IC50 in test [1] (setting [6]) was 479 nM; in test [3] (setting [6]), 151 nM. The EC50 in test [2] (setting [8]) and in test [4] (setting [8]) was above 15.1 µM in each case.
For the compound `Cn1ncc2cc(N3C(=S)N(c4cnc(C#N)c(Cl)c4)C(=O)C34CCC4)ccc21` [Cpd 168, 3-chloro-5-[8-(1-methylindazol-5-yl)-5-oxo-7-thioxo-6,8-diazaspiro[3.4]octan-6-yl]pyridine-2-carbonitrile], the results for the IC50 in test [1] (setting [6]) and in test [3] (setting [6]) were 95.5 nM and 145 nM, respectively. Besides, the Emax in test [1] (setting [9]) stood at 101%; in test [2] (setting [10]), 0.8%; in test [3] (setting [9]), 99.3%; in test [4] (setting [10]) it was 0%. The EC50 in test [2] (setting [8]) and in test [4] (setting [8]) was above 15.1 µM in each case.
In the case of `CN1CCC(Cc2ccc(N3C(=S)N(c4cnc(C#N)c(C(F)(F)F)c4)C(=O)C34CCC4)cc2)CC1` [Cpd 237, 5-[8-[4-[(1-methyl-4-piperidyl)methyl]phenyl]-5-oxo-7-thioxo-6,8-diazaspiro[3.4]octan-6-yl]-3-(trifluoromethyl)pyridine-2-carbonitrile], the Emax is 104% in test [1] (setting [5]), 0.1% in test [2] (setting [7]), 100% in test [3] (setting [5]) and 0.4% in test [4] (setting [7]). Also, the figures for the IC50 in test [1] (setting [6]) and in test [3] (setting [6]) were 832 nM and 468 nM, respectively. In addition, the EC50 in test [2] (setting [8]) and in test [4] (setting [8]) was above 15.1 µM in each case.
As to `N#Cc1ncc(N2C(=O)C3(CCC3)N(c3ccc4c(cnn4C4CCNCC4)c3)C2=S)cc1Cl` [Cpd 182, 3-chloro-5-[5-oxo-8-[1-(4-piperidyl)indazol-5-yl]-7-thioxo-6,8-diazaspiro[3.4]octan-6-yl]pyridine-2-carbonitrile], the IC50 was 550 nM in test [1] (setting [6]) and 191 nM in test [3] (setting [6]). Also, the Emax worked out at 103% in test [1] (setting [9]), 0.1% in test [2] (setting [10]), 102% in test [3] (setting [9]) and 0% in test [4] (setting [10]). Moreover, the EC50 in test [2] (setting [8]) and in test [4] (setting [8]) was above 15.1 µM in each case.
On to `N#Cc1ncc(N2C(=O)C3(CCC3)N(c3ccc(C4=CC5CCC(C4)N5)cc3)C2=S)cc1C(F)(F)F` (centres unmarked) [Cpd 116, 5-[8-[4-(8-azabicyclo[3.2.1]oct-3-en-3-yl)phenyl]-5-oxo-7-thioxo-6,8-diazaspiro[3.4]octan-6-yl]-3-(trifluoromethyl)pyridine-2-carbonitrile], for which the “LNCaP-AR-wt ANT pIC50” value in test [1] (setting [6]) stood at 5.96. The Emax in test [1] (setting [9]) came to 102%; in test [2] (setting [10]), 0.8%; in test [3] (setting [9]), 102%; in test [4] (setting [10]), 0.5%. Moreover, in test [2] (setting [8]), the “LNCaP-AR-F876L AG pEC50” value is given as below 4.82. In addition, in test [3] (setting [6]), the “LNCaP-AR-F876L ANT pIC50” value came out at 6.01. Besides, the “LNCaP-AR-wt AG pEC50” value in test [4] (setting [8]) is on record as below 4.82.
As for `CC(C)(C)OC(=O)N1CC(F)(F)CC1COc1ccc(N2C(=S)N(c3cnc(C#N)c(C(F)(F)F)c3)C(=O)C23CCC3)cc1` (centres unmarked) [Cpd 56, tert-butyl 2-[[4-[6-[6-cyano-5-(trifluoromethyl)-3-pyridyl]-5-oxo-7-thioxo-6,8-diazaspiro[3.4]octan-8-yl]phenoxy]methyl]-4,4-difluoro-pyrrolidine-1-carboxylate], the IC50 is 631 nM in test [1] (setting [6]) and 676 nM in test [3] (setting [6]). Further, the Emax in test [1] (setting [9]) was determined as 84.5%; in test [2] (setting [10]), 0.1%; in test [3] (setting [9]) it was 85.2%; in test [4] (setting [10]), 0.4%. Besides, the EC50 in test [2] (setting [8]) and in test [4] (setting [8]) was above 15.1 µM in each case.
As for `N#Cc1ncc(N2C(=O)C3(CCC3)N(c3ccc(CN4CCNC(=O)C4)cc3)C2=S)cc1C(F)(F)F` [Cpd 228, 5-[5-oxo-8-[4-[(3-oxopiperazin-1-yl)methyl]phenyl]-7-thioxo-6,8-diazaspiro[3.4]octan-6-yl]-3-(trifluoromethyl)pyridine-2-carbonitrile], the Emax in test [1] (setting [5]) is 102%; in test [2] (setting [7]) it was 0.1%; in test [3] (setting [5]), 101%; in test [4] (setting [7]) it was -0.2%. The values for the IC50 in test [1] (setting [6]) and in test [3] (setting [6]) were 209 nM and 115 nM, respectively. In addition, the EC50 in test [2] (setting [8]) and in test [4] (setting [8]) was above 15.1 µM each time.
